The record followed here is US11884647B2, “Compounds and methods for targeting pathogenic blood vessels” (THE REGENTS OF THE UNIVERSITY OF CALIFORNIA, priority 2019, dated 2024).

One experiment relates to tumor endothelial cells (LL/2 lung cancer tumor). Put plainly: Lung LL2 ex vivo model of tumor angiogenesis. The settings on record: Lung LL2 ex vivo; Conc. 40 μm; (rim). The class given is cell-based, mouse. On the procedure:
This example describes a procedure to prepare a primary tumor angiogenesis model for assessing the efficacy of anti-cancer candidate agents.
1. The day before the experiment, spray all necessary tools with 70% ethanol and sterilize them under UV light overnight, including blade, dissecting and micro-dissecting scissors and […]. Place 24-well dishes at 4° C. to pre-chill plates and thaw Matrigel 24 hours before tumor dissection.
2. Spray 70% ethanol on working bench. Prepare two sterile petri dishes with 10 mL sterile PBS. Steps 3 and 4 are for mouse tumor models. For fresh human tumor, directly go to step 5.
3. Euthanize the tumor-bearing mice. Spray 70% ethanol on the mouse and remove the tumor using sterilized dissecting tools (avoid the fur). Rinse the tumor in petri dish with sterile PBS to remove ethanol and fur. Transfer the tumor to a new petri dish with PBS for dissection. Place the dish on ice.
4. Using pre-chilled sterile pipet tips to seed regular Matrigel in 24 well plates on ice. Matrigel (30 μL) is dropped in the middle of each well without touching the edge of the well (avoid introducing bubbles if possible).
5. Cut the tumor in halves using the sterile blade. Identify and isolate healthy tumor tissue that is not necrotic and is within the tumor capsule. Cut the healthy tumor tissue into small pieces. For instance, a suitable size for the tumor tissue is 0.5 mm (H)×0.5 mm (L)×0.3 mm (D) with a total volume of 0.075 mm^3.
6. Gently transfer and embed each tumor piece in the Matrigel drop in the 24-well plate. Place the embedded piece in the bottom and middle of each Matrigel drop. Keep the plate on ice all the time.
7. After seeding the tumor pieces, plates are incubated in a 37° C. cell culture incubator without medium for 10 minutes in order for the Matrigel to solidify.
8. Endothelial Growth Medium (0.5 mL) is added to each well and incubated at 37° C. with 5% CO2. Wait until the new endothelial cells have grown out of the tumor or are larger than 3 mm in diameter until treatment. This usually takes 4 days for the LL2 Lewis lung cancer model and 7 days for the CT26 colon cancer model. For human tumor models, the growth time is typically 2-3 weeks, depending on the tumor type. Media is changed every 4 days during prolonged culture. Typically, when the tumor tissue grows to 2 mm in diameter, it is good for drug testing. A size of about 3 mm in diameter can make visualization easier.
9. When the assay is ready to be analyzed for cell death (e.g., 48 hours after drug addition), prepare the dye mixture by mixing 6 μL of green dye to stain live cells (5 mg/mL Fluorescein diacetate or FDA in DMSO) with 30 μL of red dye (2.5 mg/mL Propidium iodide or PI in PBS) to stain dead cells in an Eppendorf tube. The FDA dye needs to be stored frozen in a −20° C. freezer because it has a labile ester bond.
10. Add 1 μL of the dye mixture to each well of the 24-well dish. It is usually performed one 24-well dish at a time given the amount of time needed to take pictures (the green dye is not as stable in the cells in the long term).
11. Gently rock the dish a few times to mix the dye with the media in the wells and incubate the dish at 37° C. for 10 min (too long incubation can make the green signal too intense).
12. Wash each well with 0.5 mL of sterile PBS and then add 0.5 mL of phenol red free SFM to each well. Alternatively 0.5 mL of regular Endothelial Cell Growth Media can be added to each well if this well needs to be continuously maintained after the experiment.
13. Look through all wells on an inverted microscope using the 2× objective lens to observe morphological changes.
14. Taking pictures in the red and green channels would allow not only the recording of the result but also more accurate quantitation of the result. To take pictures for all the wells, first pick a well that has robust red and green signals. […]
As for `CCCCCCCOc1ccc(S(=O)(=O)c2cnc3ccc(SC)cc3c2N2CCC(N3CCC(O)CC3)CC2)cc1` [compound 223, 1′-(3-((4-(heptyloxy)phenyl)sulfonyl)-6-(methylthio)quinolin-4-yl)-[1,4′-bipiperidin]-4-ol], the “Cell death (rim)” value stood at 30%.

Staying with this experiment, now noted: Lung LL2 ex vivo; Conc. 40 μm; drug treatment two days.
Regarding `CCCCOc1ccc(S(=O)(=O)c2cnc3ccc(C(=O)OCC)cc3c2N2CCN(c3ccc(F)cc3)CC2)cc1` [compound 213, ethyl 3-((4-butoxyphenyl)sulfonyl)-4-(4-(4-fluorophenyl)piperazin-1-yl)quinoline-6-carboxylate], the Cell death is 30%.
For `CCCCOc1ccc(S(=O)(=O)c2cnc3ccc(SC)cc3c2N2CCC(N3CCN(CCO)CC3)CC2)cc1` [compound 230, 2-(4-(1-(3-((4-butoxyphenyl)sulfonyl)-6-(methylthio)quinolin-4-yl)piperidin-4-yl)piperazin-1-yl)ethan-1-ol], the Cell death is listed as 100%.

The same experiment, now with this note: Mus musculus, Endothelial cell, 48 h, read-out: Cell death.
Take `CCCCOc1ccc(S(=O)(=O)c2cnc3ccc(C(=O)OCC)cc3c2N2CCC(N3CCSCC3)CC2)cc1` [compound 217, ethyl 3-((4-butoxyphenyl)sulfonyl)-4-(4-thiomorpholinopiperidin-1-yl)quinoline-6-carboxylate]: the cytotoxicity at 40 µM is 30%.
In the case of `CCOC(=O)c1ccc2ncc(S(=O)(=O)c3ccc(OC)cc3)c(NN3CCN(C)CC3)c2c1` [compound 225, ethyl 3-((4-methoxyphenyl)sulfonyl)-4-((4-methylpiperazin-1-yl)amino)quinoline-6-carboxylate], the cytotoxicity at 40 µM came out at 40%.
In the case of `COc1ccc(S(=O)(=O)c2cnc3ccc(SC)cc3c2NN2CCN(C)CC2)cc1` [compound 226, 3-((4-methoxyphenyl)sulfonyl)-N-(4-methylpiperazin-1-yl)-6-(methylthio)quinolin-4-amine], the cytotoxicity at 40 µM turned out to be 10%.
For `COc1ccc(S(=O)(=O)c2cnc3ccc([S+](C)[O-])cc3c2NN2CCN(C)CC2)cc1` (stereo not drawn) [compound 227, 3-((4-methoxyphenyl)sulfonyl)-N-(4-methylpiperazin-1-yl)-6-(methylsulfinyl)quinolin-4-amine], the cytotoxicity at 40 µM is 10%.
On the same count and under the same terms, to `COc1ccc(S(=O)(=O)c2cnc3ccc(S(C)(=O)=O)cc3c2NN2CCN(C)CC2)cc1` [compound 228, 3-((4-methoxyphenyl)sulfonyl)-N-(4-methylpiperazin-1-yl)-6-(methylsulfonyl)quinolin-4-amine] belongs 5%; to `CCCCOc1ccc(S(=O)(=O)c2cnc3ccc(SC)cc3c2N2CCC(N3CCOCC3)CC2)cc1` [compound 229, 4-(1-(3-((4-butoxyphenyl)sulfonyl)-6-(methylthio)quinolin-4-yl)piperidin-4-yl)morpholine], 30%.
For the compound `CCCCOc1ccc(S(=O)(=O)c2cnc3ccc(SC)cc3c2N2CCC(N3CCC(N4CCCCC4)CC3)CC2)cc1` [compound 231, 4-([1,4′:1′,4″-terpiperidin]-1″-yl)-3-((4-butoxyphenyl)sulfonyl)-6-(methylthio)quinoline], the cytotoxicity at 40 µM was found to be 100%.
Same read-out and setting: to `CCCCOc1ccc(S(=O)(=O)c2cnc3ccc(SC)cc3c2N2CCC(N3CCC(O)(c4ccccc4)CC3)CC2)cc1` [compound 232, 1′-(3-((4-butoxyphenyl)sulfonyl)-6-(methylthio)quinolin-4-yl)-4-phenyl-[1,4′-bipiperidin]-4-ol] belongs 10%.
For `CCCCOc1ccc(S(=O)(=O)c2cnc3ccc(SC)cc3c2N2CCC(N3CCN(c4ccc(F)cc4)CC3)CC2)cc1` [compound 233, 3-((4-butoxyphenyl)sulfonyl)-4-(4-(4-(4-fluorophenyl)piperazin-1-yl)piperidin-1-yl)-6-(methylthio)quinoline], the cytotoxicity at 40 µM came out at 5%.
Take `CCCCOc1ccc(S(=O)(=O)c2cnc3ccc(SC)cc3c2N2CCC(N3CCCN(C)CC3)CC2)cc1` [compound 234, 3-((4-butoxyphenyl)sulfonyl)-4-(4-(4-methyl-1,4-diazepan-1-yl)piperidin-1-yl)-6-(methylthio)quinoline]: the cytotoxicity at 40 µM was 100%.
The same measure, in the same setting: to `CCCCOc1ccc(S(=O)(=O)c2cnc3ccc([S+](C)[O-])cc3c2N2CCC(N3CCOCC3)CC2)cc1` (stereo not drawn) [compound 235, 4-(1-(3-((4-butoxyphenyl)sulfonyl)-6-(methylsulfinyl)quinolin-4-yl)piperidin-4-yl)morpholine] belongs 10%; to `CCCCOc1ccc(S(=O)(=O)c2cnc3ccc([S+](C)[O-])cc3c2N2CCC(N3CCN(CCO)CC3)CC2)cc1` (stereo not drawn) [compound 236, 2-(4-(1-(3-((4-butoxyphenyl)sulfonyl)-6-(methylsulfinyl)quinolin-4-yl)piperidin-4-yl)piperazin-1-yl)ethan-1-ol], 5%.
Turning to `CCCCOc1ccc(S(=O)(=O)c2cnc3ccc([S+](C)[O-])cc3c2N2CCC(N3CCC(N4CCCCC4)CC3)CC2)cc1` (stereo not drawn) [compound 237, 4-([1,4′:1′,4″-terpiperidin]-1″-yl)-3-((4-butoxyphenyl)sulfonyl)-6-(methylsulfinyl)quinoline], the cytotoxicity at 40 µM came to 100%.
As to `CCCCOc1ccc(S(=O)(=O)c2cnc3ccc([S+](C)[O-])cc3c2N2CCC(N3CCN(c4ccc(F)cc4)CC3)CC2)cc1` (stereo not drawn) [compound 239, 3-((4-butoxyphenyl)sulfonyl)-4-(4-(4-(4-fluorophenyl)piperazin-1-yl)piperidin-1-yl)-6-(methylsulfinyl)quinoline], the cytotoxicity at 40 µM turned out to be 40%.
With `CCCCOc1ccc(S(=O)(=O)c2cnc3ccc([S+](C)[O-])cc3c2N2CCC(N3CCC(CO)CC3)CC2)cc1` (stereo not drawn) [compound 240, (1′-(3-((4-butoxyphenyl)sulfonyl)-6-(methylsulfinyl)quinolin-4-yl)-[1,4′-bipiperidin]-4-yl)methanol], the cytotoxicity at 40 µM was 30%.
In the case of `CCN(CC)CCOc1ccc(S(=O)(=O)c2cnc3ccc(SC)cc3c2N2CCCN(C)CC2)cc1` [compound 242, N,N-diethyl-2-(4-((4-(4-methyl-1,4-diazepan-1-yl)-6-(methylthio)quinolin-3-yl)sulfonyl)phenoxy)ethan-1-amine], the cytotoxicity at 40 µM amounted to 30%.
The same measure, in the same setting: with `CCCCOc1ccc(S(=O)(=O)c2cnc3ccc(SC)cc3c2N2CCC(N3CCSCC3)CC2)cc1` [compound 243, 4-(1-(3-((4-butoxyphenyl)sulfonyl)-6-(methylthio)quinolin-4-yl)piperidin-4-yl)thiomorpholine] the figure was 20%; with `CCCCOc1ccc(S(=O)(=O)c2cnc3ccc([S+](C)[O-])cc3c2N2CCC(N3CCSCC3)CC2)cc1` (stereo not drawn) [compound 245, 4-(1-(3-((4-butoxyphenyl)sulfonyl)-6-(methylsulfinyl)quinolin-4-yl)piperidin-4-yl)thiomorpholine], 40%.
With `CCCCCCCOc1ccc(S(=O)(=O)c2cnc3ccc(SC)cc3c2N2CCC(N3CCN(C)CC3)CC2)cc1` [compound 246, 3-((4-(heptyloxy)phenyl)sulfonyl)-4-(4-(4-methylpiperazin-1-yl)piperidin-1-yl)-6-(methylthio)quinoline], the cytotoxicity at 20 µM was found to be 95%.
For `CCCCCCCOc1ccc(S(=O)(=O)c2cnc3ccc(SC)cc3c2N2CCC(N3CCCC(O)C3)CC2)cc1` (stereo not drawn) [compound 247, 1′-(3-((4-(heptyloxy)phenyl)sulfonyl)-6-(methylthio)quinolin-4-yl)-[1,4′-bipiperidin]-3-ol], the cytotoxicity at 20 µM came out at 60%.
The same measure, in the same setting: to `CCCCCCCOc1ccc(S(=O)(=O)c2cnc3ccc(SC)cc3c2N2CCCN(CCN3CCCCC3)CC2)cc1` [compound 248, 3-((4-(heptyloxy)phenyl)sulfonyl)-6-(methylthio)-4-(4-(2-(piperidin-1-yl)ethyl)-1,4-diazepan-1-yl)quinoline] belongs 60%.
